{
  "source": "PubChem BioAssay (NCI)",
  "experiment_in_all_cases": "inhibition of tumour cell growth, NCI panel, 384-well format",
  "key": {"[1]": {"tested_on": "A498 renal"}, "[2]": {"tested_on": "BT-549 breast"}, "[3]": {"tested_on": "CCRF-CEM leukemia"}, "[4]": {"tested_on": "COLO 205 colon"}, "[5]": {"tested_on": "DU-145 prostate"}, "[6]": {"tested_on": "EKVX NSCLC"}, "[7]": {"tested_on": "HCC-2998 colon"}, "[8]": {"tested_on": "HCT-15 colon"}, "[9]": {"tested_on": "HL-60(TB) leukemia"}, "[10]": {"tested_on": "HOP-62 NSCLC"}, "[11]": {"tested_on": "HOP-92 NSCLC"}, "[12]": {"tested_on": "HS 578T breast"}, "[13]": {"tested_on": "HT29 colon"}, "[14]": {"tested_on": "IGROV1 ovarian"}, "[15]": {"tested_on": "K-562 leukemia"}, "[16]": {"tested_on": "KM12 colon"}, "[17]": {"tested_on": "LOX IMVI melanoma"}, "[18]": {"tested_on": "M14 melanoma"}, "[19]": {"tested_on": "MALME-3M melanoma"}, "[20]": {"tested_on": "MDA-MB-231 breast"}, "[21]": {"tested_on": "MDA-MB-435 melanoma"}, "[22]": {"tested_on": "MDA-MB-468 breast"}, "[23]": {"tested_on": "MOLT-4 leukemia"}, "[24]": {"tested_on": "NCI-H226 lung"}, "[25]": {"tested_on": "NCI-H23 lung"}, "[26]": {"tested_on": "NCI-H322M lung"}, "[27]": {"tested_on": "NCI-H460 NSCLC"}, "[28]": {"tested_on": "NCI-H522 lung"}, "[29]": {"tested_on": "NCI/ADR-RES ovarian"}, "[30]": {"tested_on": "OVCAR-3 ovarian"}, "[31]": {"tested_on": "OVCAR-4 ovarian"}, "[32]": {"tested_on": "OVCAR-5 ovarian"}, "[33]": {"tested_on": "OVCAR-8 ovarian"}, "[34]": {"tested_on": "PC-3 prostate"}, "[35]": {"tested_on": "RPMI-8226 leukemia"}, "[36]": {"tested_on": "RXF 393 renal"}, "[37]": {"tested_on": "SF-268 CNS"}, "[38]": {"tested_on": "SF-295 CNS"}, "[39]": {"tested_on": "SF-539 CNS"}, "[40]": {"tested_on": "SK-MEL-28 melanoma"}, "[41]": {"tested_on": "SK-MEL-5 melanoma"}, "[42]": {"tested_on": "SN12C renal"}, "[43]": {"tested_on": "SNB-19 CNS"}, "[44]": {"tested_on": "SNB-75 CNS"}, "[45]": {"tested_on": "SR leukemia"}, "[46]": {"tested_on": "SW-620 colon"}, "[47]": {"tested_on": "U251 glioblastoma"}, "[48]": {"tested_on": "UACC-257 melanoma"}, "[49]": {"tested_on": "UO-31 renal"}},
  "note": "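Abbreviation: GI50, concentration required for 50% inhibition of growth. TGI is the concentration that stops growth completely.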",
  "data": [
    {"compound": "CCC(CC)c1cc(N[C@H]2CC[C@H](N)C2)n2nccc2n1", "values": [
      {"measurement": "GI50", "setting": "[1]", "value": 218, "unit": "nM"},
      {"measurement": "TGI", "setting": "[1]", "value": 457, "unit": "nM"},
      {"measurement": "GI50", "setting": "[2]", "value": 207, "unit": "nM"},
      {"measurement": "TGI", "setting": "[2]", "value": 459, "unit": "nM"},
      {"measurement": "GI50", "setting": "[3]", "value": 210, "unit": "nM"},
      {"measurement": "TGI", "setting": "[3]", "value": 423, "unit": "nM"},
      {"measurement": "GI50", "setting": "[4]", "value": 267, "unit": "nM"},
      {"measurement": "TGI", "setting": "[4]", "value": 646, "unit": "nM"},
      {"measurement": "GI50", "setting": "[5]", "value": 313, "unit": "nM"},
      {"measurement": "TGI", "setting": "[5]", "value": 933, "unit": "nM"},
      {"measurement": "GI50", "setting": "[6]", "value": 516, "unit": "nM"},
      {"measurement": "TGI", "setting": "[6]", "value": 2650, "unit": "nM"},
      {"measurement": "GI50", "setting": "[7]", "value": 235, "unit": "nM"},
      {"measurement": "TGI", "setting": "[7]", "value": 572, "unit": "nM"},
      {"measurement": "GI50", "setting": "[8]", "value": 348, "unit": "nM"},
      {"measurement": "TGI", "setting": "[8]", "value": 1390, "unit": "nM"},
      {"measurement": "GI50", "setting": "[9]", "value": 214, "unit": "nM"},
      {"measurement": "TGI", "setting": "[9]", "value": 378, "unit": "nM"},
      {"measurement": "GI50", "setting": "[10]", "value": 234, "unit": "nM"},
      {"measurement": "TGI", "setting": "[10]", "value": 532, "unit": "nM"},
      {"measurement": "GI50", "setting": "[11]", "value": 340, "unit": "nM"},
      {"measurement": "TGI", "setting": "[11]", "value": 24300, "unit": "nM"},
      {"measurement": "GI50", "setting": "[12]", "value": 269, "unit": "nM"},
      {"measurement": "TGI", "setting": "[12]", "value": 628, "unit": "nM"},
      {"measurement": "GI50", "setting": "[13]", "value": 406, "unit": "nM"},
      {"measurement": "TGI", "setting": "[13]", "value": "> 100000", "unit": "nM"},
      {"measurement": "GI50", "setting": "[14]", "value": 414, "unit": "nM"},
      {"measurement": "TGI", "setting": "[14]", "value": "> 100000", "unit": "nM"},
      {"measurement": "GI50", "setting": "[15]", "value": 345, "unit": "nM"},
      {"measurement": "TGI", "setting": "[15]", "value": 1230, "unit": "nM"},
      {"measurement": "GI50", "setting": "[16]", "value": 295, "unit": "nM"},
      {"measurement": "TGI", "setting": "[16]", "value": 906, "unit": "nM"},
      {"measurement": "GI50", "setting": "[17]", "value": 190, "unit": "nM"},
      {"measurement": "TGI", "setting": "[17]", "value": 343, "unit": "nM"},
      {"measurement": "GI50", "setting": "[18]", "value": 276, "unit": "nM"},
      {"measurement": "TGI", "setting": "[18]", "value": 766, "unit": "nM"},
      {"measurement": "GI50", "setting": "[19]", "value": 761, "unit": "nM"},
      {"measurement": "TGI", "setting": "[19]", "value": 1950, "unit": "nM"},
      {"measurement": "GI50", "setting": "[20]", "value": 269, "unit": "nM"},
      {"measurement": "TGI", "setting": "[20]", "value": 778, "unit": "nM"},
      {"measurement": "GI50", "setting": "[21]", "value": 320, "unit": "nM"},
      {"measurement": "TGI", "setting": "[21]", "value": 903, "unit": "nM"},
      {"measurement": "GI50", "setting": "[22]", "value": 254, "unit": "nM"},
      {"measurement": "TGI", "setting": "[22]", "value": 612, "unit": "nM"},
      {"measurement": "GI50", "setting": "[23]", "value": 247, "unit": "nM"},
      {"measurement": "TGI", "setting": "[23]", "value": 528, "unit": "nM"},
      {"measurement": "GI50", "setting": "[24]", "value": 226, "unit": "nM"},
      {"measurement": "TGI", "setting": "[24]", "value": 513, "unit": "nM"},
      {"measurement": "GI50", "setting": "[25]", "value": 220, "unit": "nM"},
      {"measurement": "TGI", "setting": "[25]", "value": 505, "unit": "nM"},
      {"measurement": "GI50", "setting": "[26]", "value": 403, "unit": "nM"},
      {"measurement": "TGI", "setting": "[26]", "value": 1510, "unit": "nM"},
      {"measurement": "GI50", "setting": "[27]", "value": 195, "unit": "nM"},
      {"measurement": "TGI", "setting": "[27]", "value": 461, "unit": "nM"},
      {"measurement": "GI50", "setting": "[28]", "value": 209, "unit": "nM"},
      {"measurement": "TGI", "setting": "[28]", "value": 455, "unit": "nM"},
      {"measurement": "GI50", "setting": "[29]", "value": 2250, "unit": "nM"},
      {"measurement": "TGI", "setting": "[29]", "value": 9280, "unit": "nM"},
      {"measurement": "GI50", "setting": "[30]", "value": 200, "unit": "nM"},
      {"measurement": "TGI", "setting": "[30]", "value": 411, "unit": "nM"},
      {"measurement": "GI50", "setting": "[31]", "value": 192, "unit": "nM"},
      {"measurement": "TGI", "setting": "[31]", "value": 414, "unit": "nM"},
      {"measurement": "GI50", "setting": "[32]", "value": 392, "unit": "nM"},
      {"measurement": "TGI", "setting": "[32]", "value": "> 100000", "unit": "nM"},
      {"measurement": "GI50", "setting": "[33]", "value": 329, "unit": "nM"},
      {"measurement": "TGI", "setting": "[33]", "value": 1760, "unit": "nM"},
      {"measurement": "GI50", "setting": "[34]", "value": 262, "unit": "nM"},
      {"measurement": "TGI", "setting": "[34]", "value": 723, "unit": "nM"},
      {"measurement": "GI50", "setting": "[35]", "value": 181, "unit": "nM"},
      {"measurement": "TGI", "setting": "[35]", "value": 337, "unit": "nM"},
      {"measurement": "GI50", "setting": "[36]", "value": 191, "unit": "nM"},
      {"measurement": "TGI", "setting": "[36]", "value": 366, "unit": "nM"},
      {"measurement": "GI50", "setting": "[37]", "value": 274, "unit": "nM"},
      {"measurement": "TGI", "setting": "[37]", "value": 724, "unit": "nM"},
      {"measurement": "GI50", "setting": "[38]", "value": 223, "unit": "nM"},
      {"measurement": "TGI", "setting": "[38]", "value": 499, "unit": "nM"},
      {"measurement": "GI50", "setting": "[39]", "value": 210, "unit": "nM"},
      {"measurement": "TGI", "setting": "[39]", "value": 452, "unit": "nM"},
      {"measurement": "GI50", "setting": "[40]", "value": 969, "unit": "nM"},
      {"measurement": "TGI", "setting": "[40]", "value": 2220, "unit": "nM"},
      {"measurement": "GI50", "setting": "[41]", "value": 182, "unit": "nM"},
      {"measurement": "TGI", "setting": "[41]", "value": 331, "unit": "nM"},
      {"measurement": "GI50", "setting": "[42]", "value": 241, "unit": "nM"},
      {"measurement": "TGI", "setting": "[42]", "value": 598, "unit": "nM"},
      {"measurement": "GI50", "setting": "[43]", "value": 377, "unit": "nM"},
      {"measurement": "TGI", "setting": "[43]", "value": "> 100000", "unit": "nM"},
      {"measurement": "GI50", "setting": "[44]", "value": 380, "unit": "nM"},
      {"measurement": "TGI", "setting": "[44]", "value": 1190, "unit": "nM"},
      {"measurement": "GI50", "setting": "[45]", "value": 125, "unit": "nM"},
      {"measurement": "TGI", "setting": "[45]", "value": 253, "unit": "nM"},
      {"measurement": "GI50", "setting": "[46]", "value": 360, "unit": "nM"},
      {"measurement": "TGI", "setting": "[46]", "value": 8000, "unit": "nM"},
      {"measurement": "GI50", "setting": "[47]", "value": 334, "unit": "nM"},
      {"measurement": "TGI", "setting": "[47]", "value": 995, "unit": "nM"},
      {"measurement": "GI50", "setting": "[48]", "value": 553, "unit": "nM"},
      {"measurement": "TGI", "setting": "[48]", "value": 1770, "unit": "nM"},
      {"measurement": "GI50", "setting": "[49]", "value": 388, "unit": "nM"},
      {"measurement": "TGI", "setting": "[49]", "value": 1970, "unit": "nM"}
    ]}
  ]
}
